Results as given in patent US20240279281A1, “Peptide Inhibitors of Interleukin-23 Receptor” (Janssen Pharmaceutica NV, priority 2023, published 2024).
Counter-ions that a name gives are not always drawn. Like-named read-outs stand apart in the source and are kept apart here. Starred links: 1 amine or outer side, 2 acyl side, 3 side chain; linkers in the order of their positions; H or OH if unused. Positions of bridges follow the written chain, without caps; N, C: chain ends. Non-standard residues stand in square brackets, D forms with d. Residues, ends and D or L forms follow the SMILES beside them. *: point of attachment. X22 = CN(CCOCCOCC(=O)N(C)CCOCCOCC(=O)*)C(=O)CC[C@@H](C(=O)O)N(C)C(=O)CCCCCCCCCCCCCCCCCc1nnn[nH]1; Trp(7-(3-AcNH-Ph)) = CC(=O)Nc1cccc(-c2cccc3c(C[C@H](N)C(=O)O)c[nH]c23)c1; X12 = O=C([C@H](Cc1ccc2cc(F)ccc2c1)N[*:1])[*:2]; 2Nal(6-OH) = N[C@@H](Cc1ccc2cc(O)ccc2c1)C(=O)O; Trp(7-Me) = Cc1cccc2c(C[C@H](N)C(=O)O)c[nH]c12; Hexanoyl(6-NMe3+) = C[N+](C)(C)CCCCCC(=O)*; AEF = NCCOc1ccc(C[C@H](N)C(=O)O)cc1; 3Pal = N[C@@H](Cc1cccnc1)C(=O)O; Pen = CC(C)(S)[C@H](N)C(=O)O; Thp = NC1(C(=O)O)CCOCC1; Me2NCH2CH2 = CN(C)CC*; Tfa = O=C(C(F)(F)F)*; Sar = CNCC(=O)O

Columns and labels:
[1] = disulfide bond, 20-membered ring
IL-23R = target: T1, IL-23R (Homo sapiens, UniProt Q5VWK5); test: IL23R Reporter Assay; format: cell-based
T1 construct: host or cells: HEK293
T1 sequence (Q5VWK5 24-629): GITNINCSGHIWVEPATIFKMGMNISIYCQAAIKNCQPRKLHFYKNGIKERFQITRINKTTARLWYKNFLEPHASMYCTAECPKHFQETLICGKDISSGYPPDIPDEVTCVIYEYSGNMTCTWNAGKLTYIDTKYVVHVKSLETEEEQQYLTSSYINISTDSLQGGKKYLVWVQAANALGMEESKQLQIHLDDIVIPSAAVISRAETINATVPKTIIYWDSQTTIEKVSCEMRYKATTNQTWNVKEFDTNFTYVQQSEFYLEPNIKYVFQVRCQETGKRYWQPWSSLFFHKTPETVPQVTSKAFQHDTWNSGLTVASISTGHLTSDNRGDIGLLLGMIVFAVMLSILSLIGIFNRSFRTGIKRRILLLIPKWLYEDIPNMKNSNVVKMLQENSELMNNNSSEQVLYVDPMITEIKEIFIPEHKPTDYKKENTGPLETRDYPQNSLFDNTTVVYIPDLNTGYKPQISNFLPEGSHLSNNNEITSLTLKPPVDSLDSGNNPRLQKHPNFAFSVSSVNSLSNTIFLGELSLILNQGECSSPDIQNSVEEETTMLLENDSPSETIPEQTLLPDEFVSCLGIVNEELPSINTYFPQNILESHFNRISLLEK
Method: Compounds were serially diluted in 100% (v/v) DMSO) and plated using an Echo acoustic dispenser (Labcyte) into 1536-well non-treated black assay plates (Corning #9146). […] After 5 h at 37° C., 5% CO2, 95% relative humidity, cells were placed at 20° C. and treated with BioGlo reagent (Promega) according to the Manufacturer's instructions. Luminescence was measured on a Pherastar FSX (BMG LabTech).

[2] = target: T2, IL-23-stimulated phosphorylated STAT3 in peripheral blood mononuclear cells (PBMCs) (Homo sapiens, UniProt Q5VWK5); test: PBMC pSTAT3 Assay; format: cell-based
T2 sequence (Q5VWK5 24-629): T1 sequence (Q5VWK5 24-629)
Method: Cryopreserved peripheral blood mononuclear cells (PBMCs) from healthy donors were thawed and washed twice in ImmunoCult-XF T cell expansion medium (XF-TCEM) supplemented with CTL anti-aggregate wash. The cells were counted, resuspended at 2-6×10^5 cells per mL XF-TCEM supplemented with penicillin/streptomycin and 100 ng/mL IL-1β (BioLegend, 579404), and cultured in tissue culture flasks coated with anti-CD3 (eBioscience, 16-0037-85 or BD Pharmingen, 555329) at 37° C. in 5% CO2. On day 4 of culture, PBMCs were collected, washed twice in RPMI-1640 supplemented with 0.1% BSA (RPMI-BSA), and incubated in RPMI-BSA in upright tissue culture flasks for ˜4 hours at 37° C. in 5% CO2. Following this ‘starvation,’ a total of 6×10^4 cells in 30 μL RPMI-BSA was transferred into each well of a 384-well plate pre-spotted with peptide or DMSO. The cells were incubated for 30 minutes prior to the addition of IL-23 at a final concentration of 5 ng/mL. The cells were stimulated with cytokine for 30 minutes at 37° C. in 5% CO2, transferred onto ice for 10 minutes, and lysed. Cell lysates were stored at −80° C. until phosphorylated STAT3 was measured using the phospho-STAT panel kit (Meso Scale Discovery, K15202D).

[3] = HEK293 cells containing IL-23R, IL-12Rβ1 and STAT-inducible luciferase reporter, 10 ng/mL IL-23, 5 h, read-out: IC50
[4] = PBMCs from healthy donors, IL-23 5 ng/mL, 30 minutes, read-out: PBMC pSTAT3 IC50

CC(=O)NCCCC[C@@H]1NC(=O)[C@H](Cc2c[nH]c3c(-c4cccc(NC(C)=O)c4)cccc23)NC(=O)[C@H]([C@@H](C)O)NC(=O)[C@H](CC(N)=O)NC(=O)[C@@H](NC(=O)[C@@H](CCCNC(=N)N)NC(C)=O)C(C)(C)SSC(C)(C)[C@@H](C(=O)N[C@@H](Cc2ccc(OCCN)cc2)C(=O)N[C@@H](Cc2ccc3cc(O)ccc3c2)C(=O)NC2(C(=O)N[C@@H](CCC(=O)O)C(=O)N[C@@H](CC(N)=O)C(=O)N[C@@H](Cc3cccnc3)C(=O)N(C)CC(N)=O)CCOCC2)NC1=O [compound 287, MeCO-r-Pen(3)-N-T-7(3NAcPh)W-K(Ac)-Pen(3)-AEF-6OH2Nal-THP-E-N-3Pya-Sar-CONH2] (Ac-[dR][Pen]NT[Trp(7-(3-AcNH-Ph))]K(Ac)[Pen][AEF][2Nal(6-OH)][Thp]EN[3Pal][Sar]-NH2; disulfide 2-7)
ring closure, yield after HPLC ([1]; from Ac-dArg-Pen-Asn-Thr-7(3NAcPh)Trp-Lys(Ac)-Pen-AEF-6OH2Nal-THP-Glu-Asn-3Pya-Sar-NH2, I2/MeOH, 20% MeCN/H2O, 0.8 mM): 26%
IC50 (IL-23R; [3]): < 10 nM
IC50 [2, 4]: 0.01 to 0.1 nM

Cc1cccc2c(C[C@@H]3NC(=O)[C@H]([C@@H](C)O)NC(=O)[C@H](CC(=O)N(C)C)NC(=O)[C@@H](NC(=O)[C@@H](CCCCNC(=O)CCCCC[N+](C)(C)C)NC(=O)C(F)(F)F)C(C)(C)SSC(C)(C)[C@@H](C(=O)N[C@@H](Cc4ccc(OCCN(C)C)cc4)C(=O)N[C@@H](Cc4ccc5cc(O)ccc5c4)C(=O)NC4(C(=O)N[C@@H](CCC(=O)N(C)C)C(=O)N[C@@H](CC(N)=O)C(=O)N[C@@H](Cc5cccnc5)C(=O)N(C)CC(=O)N(C)C)CCOCC4)NC(=O)[C@H](CCC(=O)N(C)C)NC3=O)c[nH]c12 [SEQ ID NO: 405, CF3CO-k(5cpa)-Pen(3)-N(N(Me)2)-T-7MeW-Q(N(Me)2)-Pen(3)-AEF(N(Me)2)-6OH2Nal-THP-Q(N(Me)2)-N-3Pya-Sar-CON(Me)2] (Tfa-[dK](Hexanoyl(6-NMe3+))[Pen]D(NMe2)T[Trp(7-Me)]E(NMe2)[Pen]Y(Me2NCH2CH2)[2Nal(6-OH)][Thp]E(NMe2)N[3Pal][Sar]-NMe2; disulfide 2-7)
ring closure, yield after HPLC ([1]; from CF3CO-dLys(5cpa)-Pen-Asn(NMe2)-Thr-7MeTrp-Gln(NMe2)-Pen-AEF(NMe2)-6OH2Nal-THP-Gln(NMe2)-Asn-3Pya-Sar-NMe2, I2/MeOH, 20% MeCN/H2O, 0.51 mM): 13.4%
IC50 (IL-23R; [3]): < 10 nM
IC50 [2, 4]: 0.01 to 0.1 nM

CC(=O)NCCCC[C@@H]1NC(=O)[C@H](Cc2c[nH]c3c(C)cccc23)NC(=O)[C@H]([C@@H](C)O)NC(=O)[C@H](CC(N)=O)NC(=O)[C@@H](NC(=O)[C@@H](CCCNC(=N)N)NC(C)=O)C(C)(C)SSC(C)(C)[C@@H](C(=O)N[C@@H](Cc2ccc(OCCN)cc2)C(=O)N[C@@H](Cc2ccc3cc(F)ccc3c2)C(=O)NC2(C(=O)N[C@@H](CCC(=O)O)C(=O)N[C@@H](CC(N)=O)C(=O)N[C@@H](Cc3cccnc3)C(=O)N(C)CC(N)=O)CCOCC2)NC1=O [SEQ ID NO: 407, MeCO-r-Pen(3)-N-T-7MeW-K(Ac)-Pen(3)-AEF-6F2Nal-THP-E-N-3Pya-Sar-CONH2] (Ac-[dR][Pen]NT[Trp(7-Me)]K(Ac)[Pen][AEF][X12][Thp]EN[3Pal][Sar]-NH2; disulfide 2-7)
ring closure, yield after HPLC ([1]; from Ac-dArg-Pen-Asn-Thr-7MeTrp-Lys(Ac)-Pen-AEF-6F2Nal-THP-Glu-Asn-3Pya-Sar-NH2, I2/MeOH, 20% MeCN/H2O, 0.85 mM): 22.1%
IC50 (IL-23R; [3]): < 10 nM
IC50 [2, 4]: 0.01 to 0.1 nM

CC(=O)NCCCC[C@@H]1NC(=O)[C@H](Cc2c[nH]c3c(C)cccc23)NC(=O)[C@H]([C@@H](C)O)NC(=O)[C@H](CC(N)=O)NC(=O)[C@@H](NC(=O)[C@@H](CCCNC(=N)N)NC(C)=O)C(C)(C)SSC(C)(C)[C@@H](C(=O)N[C@@H](Cc2ccc(OCCN)cc2)C(=O)N[C@@H](Cc2ccc3cc(O)ccc3c2)C(=O)NC2(C(=O)N[C@@H](CCC(=O)O)C(=O)N[C@@H](CC(N)=O)C(=O)N[C@@H](Cc3cccnc3)C(=O)N(C)CC(=O)N[C@@H](CCCCNC(=O)COCCOCCNC(=O)COCCOCCNC(=O)CC[C@H](NC(=O)CCCCCCCCCCCCCCCCC(=O)O)C(=O)O)C(N)=O)CCOCC2)NC1=O
ring closure, yield after HPLC ([1]; from Ac-dArg-Pen-Asn-Thr-7MeTrp-Lys(Ac)-Pen-AEF-6OH2Nal-THP-Glu-Asn-3Pya-Sar-Lys(PEG2PEG2gEC18OH)-NH2, I2/MeOH, 20% MeCN/H2O, 0.857 mM): 12.1%

CC(=O)NCCCC[C@@H]1NC(=O)[C@H](Cc2c[nH]c3c(C)cccc23)NC(=O)[C@H]([C@@H](C)O)NC(=O)[C@H](CC(N)=O)NC(=O)[C@@H](NC(=O)[C@@H](CCCNC(=N)N)NC(C)=O)C(C)(C)SSC(C)(C)[C@@H](C(=O)N[C@@H](Cc2ccc(OCCN)cc2)C(=O)N[C@@H](Cc2ccc3cc(O)ccc3c2)C(=O)NC2(C(=O)N[C@@H](CCC(=O)O)C(=O)N[C@@H](CC(N)=O)C(=O)N[C@@H](Cc3cccnc3)C(=O)N(C)CC(=O)N[C@@H](CCCCNC(=O)COCCOCCN(C)C(=O)COCCOCCN(C)C(=O)CC[C@@H](C(=O)O)N(C)C(=O)CCCCCCCCCCCCCCCCCc3nnn[nH]3)C(N)=O)CCOCC2)NC1=O [SEQ ID NO: 115, MeCO-r-Pen(3)-N-T-7MeW-K(Ac)-Pen(3)-AEF-6OH2Nal-THP-E-N-3Pya-Sar-K(PEG2NMePEG2NMegENMeCl8Tetrazole)-CONH2] (Ac-[dR][Pen]NT[Trp(7-Me)]K(Ac)[Pen][AEF][2Nal(6-OH)][Thp]EN[3Pal][Sar]K(X22)-NH2; disulfide 2-7)
ring closure, yield after HPLC ([1]; from Ac-dArg-Pen-Asn-Thr-7MeTrp-Lys(Ac)-Pen-AEF-6OH2Nal-THP-Glu-Asn-3Pya-Sar-Lys(PEG2NMePEG2NMegENMeCl8Tetrazole)-NH2, I2/MeOH, 20% MeCN/H2O, 0.503 mM): 8.08%
IC50 (IL-23R): 10 to 100 nM
IC50 ([2]; read-out: PBMC pSTAT3 IC50, PBMCs from healthy donors, IL-23 5 ng/mL, 30 minutes): 0.1 to 1 nM

CC(=O)NCCCC[C@@H]1NC(=O)[C@H](Cc2c[nH]c3c(C)cccc23)NC(=O)[C@H]([C@@H](C)O)NC(=O)[C@H](CC(N)=O)NC(=O)[C@@H](NC(=O)[C@@H](CCCNC(=N)N)NC(C)=O)C(C)(C)SSC(C)(C)[C@@H](C(=O)N[C@@H](Cc2ccc(OCCN)cc2)C(=O)N[C@@H](Cc2ccc3cc(Br)ccc3c2)C(=O)NC2(C(=O)N[C@@H](CCC(=O)O)C(=O)N[C@@H](CC(N)=O)C(=O)NC3(C(N)=O)CCOCC3)CCOCC2)NC1=O
ring closure, yield after HPLC ([1]; from Ac-dArg-Pen-Asn-Thr-7MeTrp-Lys(Ac)-Pen-AEF-6Br2Nal-THP-Glu-Asn-THP-NH2, I2/MeOH, 20% MeCN/H2O, 0.977 mM): 34.1%

MeCO-Pen(3)-N(N(Me)2)-T-7MeW-Dab(NMecarn)-Pen(3)-AEF-6OH2Nal-THP-Dab(NMecarn)-N-3Pya-Sar-CON(Me)2
ring closure, yield after HPLC ([1]; I2/AcOH, MeCN/H2O, 2.09 mM): 23%

MeCO-Pen(3)-E(2)-T-7MeW-K(Ac)-Pen(3)-AEF(2)-6OH2Nal-THP-K(Ac)-N-3Pya-Sar-CONH2
ring closure, yield after HPLC ([1]; I2/MeOH, 20% MeCN/H2O, 0.85 mM): 8.28%

Cc1cccc2c(C[C@@H]3NC(=O)[C@H]([C@@H](C)O)NC(=O)[C@H](CC(N)=O)NC(=O)[C@@H](NC(=O)CCOCCOCC[N+](C)(C)C)C(C)(C)SSC(C)(C)[C@@H](C(=O)N[C@@H](Cc4ccc(OCCN)cc4)C(=O)N[C@@H](Cc4ccc5cc(O)ccc5c4)C(=O)NC4(C(=O)N[C@@H](CCCCN(C)C(=O)CCOCCOCC[N+](C)(C)C)C(=O)N[C@@H](CC(N)=O)C(=O)N[C@@H](Cc5cccnc5)C(=O)N(C)CC(N)=O)CCOCC4)NC(=O)[C@H](CCCCN(C)C(=O)CCOCCOCC[N+](C)(C)C)NC3=O)c[nH]c12
ring closure, yield after HPLC ([1]; from cPEG3aCO-Pen-Asn-Thr-7MeTrp-Lys(NMecPEG3a)-Pen-AEF-6OH2Nal-THP-Lys(NMecPEG3a)-Asn-3Pya-Sar-NH2, I2/MeOH, 20% MeCN/H2O, 0.6 mM): 11.7%
